Where two headings read alike, the source gives them in different places.
Experiments:
[1] = Metabolic stability assay in rat liver microsomes; format: in vitro ADME; details: for half-life at 1 µM: rat, liver microsomes
Description: The metabolic stability of the compounds was evaluated in incubation with rat liver microsomes.

[2] = Rat pharmacokinetics study, oral gavage (Example B8); format: in vivo
Description: Pharmacokinetics of the testing compounds was determined in male SD rats, n=3. Briefly, each compound was prepared in 0.5% CMC-Na and 1% Tween in water to yield a homogeneous suspension at 1 mg/ml, and then administrated to 10 mg/kg via oral gavage. The animals were fasted overnight before dosing and fed for 4 hour post dosing with free access to water for all time. Blood samples were collected at pre-dose, 0.083, 0.25, 0.5, 1, 2, 4, 8 and 24 hours, into K2EDTA-coated tube via tail vein for serial sampling and cardiac puncture for terminal sampling. […] Plasma samples were stored at approximately −80° C. until analysis. The compound in the plasma samples were then extracted and concentrations determined by LC-MS/MS.

[3] = system: high-fat diet (HFD)-induced diabetic mouse model; assay: Efficacy in high-fat diet (HFD)-induced diabetic/fatty liver mouse model; format: in vivo; details: Mus musculus; HFD model, oral daily gavage; read-out: Efficacious dosage to reduce blood glucose in mouse models, oral daily gavage
Description: For HFD induced diabetic mouse model, C57Bl6 mice (male, n=6) were induced to obese and diabetic conditions by feeding high-fat diet (HFD, 60% fat calories, Research Diet, Inc. New Brunswick, NJ) for 3-4 months. […] During the 3-week period, the mice continued feeding HFD. […] The blood glucose levels were measured after an overnight fast, plasma insulin levels were tested after 5-6 hours fast, and the glycated HbA1c levels were determined in whole blood samples.
FIG. 15C and FIG. 15D show liver sections from mice fed HFD following 3 weeks of treatment with Compounds 25 and 64, respectively (P.O. dosing of 5 mg/kg, by daily gavage).
Experiments were similarly performed with other compounds, in either high-fat diet induced diabetes and fatty liver models, or in db/db mouse model, or in both, by daily oral gavage administration with low dosages.

[4] = PO pharmacokinetic study, oral exposure (Example B3); format: in vivo; details: for AUC at 24 h / AUC(0-t) at 24 h: blood, po; for AUC at 24 h: 10 mg/kg gavage; for Fold increase over Compound 27 in U.S. Pat. No. 10,227,315: ratio of oral AUC 24 hr
Description: The blood concentration of the compound was then determined at 0 (pre-dosing), 5 min, 15 min, 30 min, 1 hr, 2 hr, 4 hr, 8 hr, 24 hr time points by LC-MS/MS analysis (See Tables 1 and 2, vide supra).

[5] = system: C2C12 cells; assay: Mitochondrial uncoupling activity by oxygen consumption rate (OCR) assay, Seahorse, in presence of oligomycin; format: cell-based, mouse; details: for minimal effective concentration: Mus musculus, C2C12, in the presence of oligomycin 2.5 μM, read-out: COCR-min: minimal concentration increasing OCR in the presence of oligomycin
In short: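 Mouse C2C12 myoblasts grown in 10% FBS medium had OCR measured on Seahorse XF96/XF24 sequentially: basal, after 2.5 μM oligomycin (final), then after compound at varying concentrations. Rotenone/antimycin A confirmed mitochondrial origin. COCR-min is the minimal compound concentration inducing OCR in the presence of oligomycin.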

[6] = system: LX-2 cells (human hepatic stellate cells); assay: Inhibition of TGFβ-induced hepatic stellate cell differentiation into myofibroblast-like cells; format: cell-based; details: TGFβ 10 ng/ml; for minimal effective concentration: Homo sapiens, LX-2, hepatic stellate cell differentiation to myofibroblast-like cells, 24 hours, read-out: Minimal inhibitory concentration; for inhibition of TGFβ-induced hepatic stellate cell differentiation: in words
Description: Liver fibrosis is one hallmark of NASH. […] This process could be modeled in vitro using the hepatic stellate differentiation experiment. The human hepatic stellate LX-2 cells were cultured within DMEM (Dulbecco's Modified Eagle Media, pH 7.4) supplied with 2% fetal bovine serum, 4.5 g/l glucose and 2 mM glutamine to 100 percent confluence. […] Cellular morphology was then examined under a microscope. As shown in FIG. 16 to FIG. 17, hepatic stellate cells could be induced by TGF-beta to differentiate into myofibroblast-like cells.

[7] = system: animal models; details: mixed with food, cited from earlier work; for dose required to achieve efficacy, equivalent: equivalent of ppm in diet
[8] = system: HepG2; assay: Cell growth inhibition assay (SRB), HepG2; format: cell-based; details: Homo sapiens, HepG2, 48 h
Description: Cell growth inhibition assays were performed using a protocol standardized by National Cancer Institute (NCI) for evaluating anti-cancer drugs. Various mammalian cell lines were used for the assays. Briefly, the cells were inoculated into 96 well microtiter plates. After cell inoculation, the microtiter plates were incubated for cell growth for 24 h prior to the addition of compounds. After 24 h, two plates of each cell line were fixed in situ with TCA, to represent a measurement of the cell population for each cell line at the time of compound addition (Tz). Test compounds were solubilized in dimethyl sulfoxide. At the time of test compound addition, five 10-fold or ½ log serial dilutions were made to provide a total of five test compound concentrations plus control. Aliquots of 100 μl of these different test compound dilutions were added to the appropriate microtiter wells already containing 100 μl of the medium, resulting in the required final test compound concentrations. Following test compound addition, the plates were incubated for an additional 48 h. The assay was terminated by the addition of cold TCA. Cells were fixed in situ with 50 μl of cold 50% (w/v) TCA (final concentration, 10% TCA), washed five times with tap water and air-dried. Sulforhodamine B (SRB) solution (100 μl) at 0.4% (w/v) in 1% acetic acid was added to each well, and plates were incubated for 10 minutes at room temperature. After staining, the unbound dye was removed by washing five times with 1% acetic acid and the plates were air-dried. The bound stain was subsequently solubilized with 10 mM trizma base, and the absorbance was read on an automated plate reader at a wavelength of 515 nm. Using the seven absorbance measurements [time zero, (Tz), control growth, (C), and test growth in the presence of a compound at the five concentration levels (Ti)], the percentage growth was calculated at each of the test compound concentrations levels.

[9] = system: cultured mammalian cells, the NIH-3T3 cells, C2C12 cells, and other mammalian cell lines; assay: Mitochondrial membrane potential (MMP) assay, TMRE (or DilC1(5)) staining, related to OCR induction; format: cell-based; details: ratio of concentration leading to 10% MMP retention (90% MMP loss, TMRE) to minimal concentration leading to OCR increase
Description: Mitochondrial membrane potential assay was performed using the standard TMRE (tetramethylrhodamine ethyl ester) staining method with cultured mammalian cells, the NIH-3T3 cells, C2C12 cells, and other mammalian cell lines. Cells were seeded in 6-well plates and cultured in DMEM medium supplemented with 10% fetal bovine serum and 2 mM glutamine. Cells were allowed to grow to the logarithmic growth phase prior to experiments. The cells were treated with each individual compound at various concentrations for two hours, followed by staining with TMRE at a final concentration of 100 nM for 15 minutes. The cells were then washed once with PBS, and examined under fluorescence microscopy. Cells treated with various concentrations of niclosamide ethanolamine were used as a positive control.
In some examples, mitochondrial membrane potential was measured with DilC1(5) staining. Briefly, DilC1(5) was added to the cells to 50 nM final concentration and the cells were incubated at 37° C., 5% CO2, for 15 to 30 minutes. Cells were washed once by adding 2 mL of warm phosphate-buffered saline (PBS). Mitochondrial staining was determined by fluorescence microscopy with 633 nm excitation using standard filters for far-red emission.
Using the ratio between C10% TMRE (the concentration at which 10% MMP remains, i.e. 90% MMP is lost) and Cmin-OCR (the concentration at which minimal OCR induction is observed), we categorized the MMP-retaining uncouplers into two groups.

[10] = in words, cited from earlier work
[11] = 1 μM compound, 0.5 mg/ml microsomal protein, 37° C., read-out: Metabolic stability half-life (T1/2, min, rat liver microsome)

CN(C)CCc1cc(Cl)cc(C(=O)Nc2nc3ccc(C(F)(F)F)cc3s2)c1O [Compound 2 of U.S. Pat. No. 10,227,315]
Metabolic stability half-life (T1/2, min, rat liver microsome) ([1]; 1 μM compound, 0.5 mg/ml microsomal protein, 37° C., 1 µM): 2,132 min | half-life at 1 µM [1, 11]: 35.5 h | half-life at 1 µM ([1]; rat liver microsomes, read-out: rat microsome metabolic stability, half-life): 35.5 h | Rat Oral PK (in vivo) half-life (T1/2, hour) ([2]; 10 mg/kg oral gavage): 66.9 h | half-life ([2]; plasma, 10 mg/kg, oral): 66.9 h

O=C(Nc1nc2ccc(C(F)(F)F)cc2s1)c1cc(Cl)cc(C2CCCO2)c1O (stereo not drawn) [Compound 15, 5-chloro-2-hydroxy-3-(tetrahydrofuran-2-yl)-N-(6-(trifluoromethyl)benzo[d]thiazol-2-yl)benzamide]
minimal effective dose [3]: 2.5 mg/kg | AUC at 24 h [4]: > 120000 ng·h/mL | minimal effective concentration [5]: < 5 µM

Cl.O=C(Nc1nc2ccc(C(F)(F)F)cc2s1)c1cc(Cl)cc(CN2CCOCC2)c1O [Compound 16, 5-chloro-2-hydroxy-3-(morpholinomethyl)-N-(6-(trifluoromethyl)benzo[d]thiazol-2-yl)benzamide]
minimal effective dose [3]: 1 mg/kg | AUC at 24 h [4]: 10000 to 30000 ng·h/mL | minimal effective concentration [5]: < 5 µM | effect on oxygen consumption rate (OCR) ([5]; in words): increase OCR in the presence of oligomycin | minimal effective concentration [6]: 5 µM | inhibition of TGFβ-induced hepatic stellate cell differentiation [6]: able to directly inhibit hepatic stellate cell (HSC) activation in vitro

O=C(Nc1nc2ccc(C(F)(F)F)cc2s1)c1cc(Cl)cc(CN2CCCC2)c1O [Compound 23, 5-chloro-2-hydroxy-3-(pyrrolidin-1-ylmethyl)-N-(6-(trifluoromethyl)benzo[d]thiazol-2-yl)benzamide]
minimal effective dose [3]: 10 mg/kg | AUC at 24 h [4]: 10000 to 30000 ng·h/mL | minimal effective concentration [5]: < 5 µM | minimal effective concentration [6]: 5 µM | inhibition of TGFβ-induced hepatic stellate cell differentiation [6]: able to directly inhibit hepatic stellate cell (HSC) activation in vitro

CCc1cc(Cl)cc(C(=O)Nc2nc3ccc(C(F)(F)F)cc3s2)c1O [Compound 27 in U.S. Pat. No. 10,227,315, reference compound]
dose required to achieve efficacy, equivalent [7]: 60 to 75 mg/kg/day | dose required to achieve efficacy, in diet [7]: 600-750 ppm | AUC(0-t) at 24 h ([4]; 10 mg/kg): ~3000 ng·h/mL | Fold increase over Compound 27 in U.S. Pat. No. 10,227,315 [4]: 1.0

Cc1cc(Cl)cc(C(=O)Nc2nc3ccc(C(F)(F)F)cc3s2)c1O [Compound 28 in U.S. Pat. No. 10,227,315, reference compound]
dose required to achieve efficacy, equivalent [7]: 60 to 75 mg/kg/day | dose required to achieve efficacy, in diet [7]: 600-750 ppm | AUC(0-t) at 24 h ([4]; 10 mg/kg): 4410 ng·h/mL | Fold increase over Compound 27 in U.S. Pat. No. 10,227,315 [4]: 1.5

O=C(Nc1nc2ccc(C(F)(F)F)cc2s1)c1cc(Cl)cc(CN2CCC(C(F)(F)F)CC2)c1O [Compound 57, 5-chloro-2-hydroxy-N-(6-(trifluoromethyl)benzo[d]thiazol-2-yl)-3-((4-(trifluoromethyl)piperidin-1-yl)methyl)benzamide]
GI50 [8]: < 5 µM | minimal effective concentration [5]: < 5 µM

COCc1cc(C(F)(F)F)cc2sc(NC(=O)c3cc(Cl)cc(C)c3O)nc12 [Compound 68, 5-chloro-2-hydroxy-N-(4-(methoxymethyl)-6-(trifluoromethyl)benzo[d]thiazol-2-yl)-3-methylbenzamide]
GI50 [8]: < 5 µM | AUC at 24 h [4]: 30000 to 60000 ng·h/mL | minimal effective concentration [5]: < 5 µM

Cc1cc(Cl)cc(C(=O)Nc2nc3c(C4CCCO4)cc(C(F)(F)F)cc3s2)c1O (stereo not drawn) [Compound 71, 5-chloro-2-hydroxy-3-methyl-N-(4-(tetrahydrofuran-2-yl)-6-(trifluoromethyl)benzo[d]thiazol-2-yl)benzamide]
GI50 [8]: < 5 µM | minimal effective concentration [5]: < 5 µM

O=[N+]([O-])c1ccc(O)c([N+](=O)[O-])c1 [DNP, 2,4-dinitrophenol]
C10%TMRE/Cmin-OCR [9]: ≤ 3 | half-life [10]: days to weeks | toxicity in humans ([10]; human obesity treatment): exhibited high levels of toxicity and had a narrow therapeutic window

COCCN(CCOC)Cc1cc(Cl)cc(C(=O)Nc2nc3ccc(C(F)(F)F)cc3s2)c1O [drawing 263]
half-life at 1 µM [1, 11]: 0.467 h

O=C(Nc1nc2ccc(C(F)(F)F)cc2s1)c1cc(Cl)cc(CN2CCCCC2)c1O [drawing 264]
half-life at 1 µM [1, 11]: 1.53 h

O=C(Nc1ccc([N+](=O)[O-])cc1Cl)c1cc(Cl)ccc1O [niclosamide ethanolamine]
dose required to achieve efficacy, equivalent [7]: 150 mg/kg/day | dose required to achieve efficacy, in diet [7]: 1500 ppm | AUC(0-t) at 24 h ([4]; 50 mg/kg): ~1800 ng·h/mL
